Results from patent US20240382459A1, “MECHANISMS OF ANDROGEN RECEPTOR-CENTERED TRANSCRIPTIONAL NETWORKS IN REGULATING CD8+ T CELL EXHAUSTION AND THERAPEUTIC APPLICATIONS IN CANCER” (Ohio State Innovation Foundation, priority 2023, published 2024).

Columns and labels:
[1] = test system: human Tcf7 promoter; details: HEK293FT with or without EGFP-C1-AR, 24 h, 500 ng/mL testosterone or 50 nM DHT
Protocol: Renilla and Red Firefly luciferase activity, the latter of which was regulated by a 1 kb long WT or mutant Tcf7 promoter sequence lacking putative AREs (FIG. 13A), were simultaneously measured in control or EGFP-C1-AR overexpressing HEK293FT post 24 h stimulation with 500 ng/mL testosterone (T) or 50 nM DHT.
Red Firefly luciferase activity, as regulated by a 1 kb long human WT or mutant Tcf7 promoter sequence lacking putative AREs, was measured in EGFP-C1-AR overexpressing HEK293FT cells post 24 h stimulation with 500 ng/mL testosterone or vehicle control.
WT or mutated human Tcf7 promoter sequence of one kb upstream from its transcriptional start site was cloned into the pMCS-Red Firefly Luciferase vector (Thermo Fisher). Mutants lacked individual (“Mut 1-4”) or all putative AR binding sites. Briefly, 40,000 HEK293FT cells were grown on a 96 well plate at 80% confluence. Cells were transfected with 200 ng of pEGFP-C1-human AR (a gift from Michael Mancini, Addgene plasmid #28235) and indicated Tcf7 luciferase reporter plasmids using Lipofectamine 2000 (Thermo Fisher) on Day 0 in triplicates. Renilla luciferase gene expression was used to ensure transfection efficiency (Thermo Fisher). […] Cells were then harvested and luciferase activity was analyzed by using Dual-Luciferase Reporter Assay System (Promega).

[2] = test system: AR-overexpressing Jurkat cells; details: 100 nM, re-stimulated Days 0, 3, 6, over 9 days
Protocol: Data are mean±SEM. Statistical significance was determined by Student's t test. **p≤0.01, ****p≤0.0001.
Empty vector and androgen receptor-expressing Jurkat cells were seeded into six well plates (Gibco) at 2×10^5 cells per well and treated with 100 nM testosterone (Sigma) or DHT (Millipore), alongside methanol vehicle control (Thermo Fisher). Every three days, cells were counted using the BioRad TC20 automated cell counter, passaged, and re-stimulated with the same androgen concentrations over a time course of 3, 6, and 9 days.

[3] = test system: MB49 mouse urothelial carcinoma cells; assay: MB49 tumor growth in WT mice after daily oral enzalutamide; assay type: in vivo; details: male WT mice, enzalutamide 25 mg/kg daily oral gavage from Day 5, vs vehicle
Description: FIGS. 5A, 5B, 5C, 5D, 5E, 5F, 5G, 5H, 5I, and 5J show T cell intrinsic AR signaling contributes to male bias in tumor growth and accumulation of CD8^+ progenitor exhausted T cells. MB49 growth and circulating free testosterone levels in (5A) Four Core Genotype or (5B) WT mice three weeks post sham or surgical castration (cast). […] LNCaP lysates were used as the positive AR control. Rep, replicate. […] For tumor growths, mean area (mm^2)±SEM are reported, with statistical significance determined using the repeated measures two-way ANOVA. n=6-11 mice per group.
MB49 (a gift from C. Voelkel-Johnson from the Medical University of South Carolina) and BKL171 mouse urothelial carcinoma cells were cultured in Dulbecco's modified Eagle's medium with 10% heat-inactivated fetal bovine serum and 1% penicillin/streptomycin. 5×10^5 tumor cells were resuspended in 100 μL ice cold PBS for subcutaneous injection into the right flank of a mouse. For antibody-mediated T cell depletion experiments, mice were injected intraperitoneally with 200 μg of anti-mouse CD4 (Clone GK1.5, BioXCell) and/or CD8 neutralizing antibodies (Clone 53-6.7, BioXCell), followed by 100 μg thereafter on the indicated days. […] Tumor surface area (width×length mm^2) was measured using an electronic caliper starting on Day 4 post implantation.

[4] = test system: CD8+ tumor-infiltrating lymphocytes (TILs) from female patients with bladder cancer; assay: AR blockade of in vitro expanded CD8+ bladder cancer TILs, flow cytometry; assay type: cell-based, human; details: enzalutamide (50 uM in the presence of 10 nM DHT; varying doses), ex vivo expanded TILs
Description: FIGS. 19A, 19B, 19C, 19D and 19E show androgen receptor blockade of in vitro expanded CD8+ bladder cancer TILs promotes effector differentiation and function. […] Statistical significance in FIGS. 19A-C determined by repeated measures ANOVA. P values were corrected for multiple hypothesis testing using the Dunnett method. Statistical significance in FIG. 19E determined by Student's paired t test. *P≤0.05.
In FIG. 19, we investigated the impact of androgen receptor (AR) blockade on in vitro expanded CD8^+ tumor-infiltrating lymphocytes (TILs) from female patients with bladder cancer, focusing on effector differentiation and function. Panel A (FIG. 19A) illustrates the effect of dihydrotestosterone (DHT) treatment on the CD8+GZMB^high population within ex vivo expanded TILs. […] Panel D (FIG. 19D) assesses IFNγ production in CD8+ TILs after PMA/ionomycin/golgi block stimulation with or without enzalutamide. Lastly, Panel E presents the median fluorescence intensity (MFI) of IFN-gamma within the CD8+GZMB^high population. Statistical significance in Panels A-C was determined by repeated measures ANOVA, with P values corrected for multiple hypothesis testing using the Dunnett method. In Panel E (FIG. 19E), statistical significance was determined by Student's paired t test (*P≤0.05).

[5] = test system: Tcf7; assay: qPCR of naive CD8+ T cells stimulated with testosterone, type I IFN or both; assay type: cell-based, mouse
Protocol: See methods for details. […] Blue, Male; Pink, Female.
Mouse spleens and tumors were mechanically disrupted, with the latter additionally subjected to digestion with 1 mg/mL Collagenase D (Roche) for 30 min at 37° C. while shaken at 125 rpm. Excess volume of ice-cold PBS with 2% bovine serum albumin was used to inactivate the enzymatic activity. Red Blood Cell Lysis Buffer (BioLegend) was utilized on tissues before they were passed through 70 μm filters to prepare single cell suspensions. For cytokine production experiments, cells were re-stimulated by 50 ng/mL PMA (Sigma), 1 μg/mL Ionomycin (Sigma) and 1× Brefeldin A (BioLegend) in a 48-well plate for 2 hours at 37° C. For in vitro cultures, purified CD8^+ T cells were left untreated or stimulated with 50 ng/mL testosterone (Sigma) and/or 50 U/mL mouse IFN alpha A (PBL Assay Science). Cells were stained at 4° C. with eFluor506 fixable viability dye for 10 minutes (Invitrogen), followed by extracellular surface markers and FcR block concurrently for 30 minutes. […]
RNA was extracted from FACS/MACS-isolated CD8^+ T cells and reverse-transcribed using RNeasy Micro Kit (Qiagen) and SuperScript™ IV VILO™ Master Mix with ezDNase™ Enzyme (ThermoFisher Scientific), respectively. Quantitative PCR was performed with the following primers: […]

Row | Structure (SMILES) | Tcf7 promoter activity (Red Firefly luciferase) [1] | proliferation [2] | MB49 tumor growth [3] | effector differentiation and function of CD8+ TILs (GZMB high frequency, PD-1 high TOX high frequency, IFNγ) [4] | Ar expression (qPCR) ([5]; female CD8+ T cells, testosterone) | Tcf7 expression (qPCR) ([5]; male CD8+ T cells, acute testosterone exposure, 6 hours)
1 | C[C@]12CCC(=O)C[C@@H]1CC[C@@H]1[C@@H]2CC[C@]2(C)[C@@H](O)CC[C@@H]12 [DHT, dihydrotestosterone] | stimulated Tcf7 promoter activity in an AR dependent manner | decreased proliferation | – | – | – | –
2 | CNC(=O)c1ccc(N2C(=S)N(c3ccc(C#N)c(C(F)(F)F)c3)C(=O)C2(C)C)cc1F [enzalutamide] | – | – | partial protection against tumor growth | promoting effector differentiation and function | – | –
3 | C[C@]12CC[C@H]3[C@@H](CCC4=CC(=O)CC[C@@]43C)[C@@H]1CC[C@@H]2O [testosterone] | stimulated Tcf7 promoter activity in an AR dependent manner | decreased proliferation | – | – | induction of Ar expression | significantly increased
